Experimental data published in patent US6524330B1, “Method of ocular treatment” (priority 2000, dated 2003).
Entries after “also recorded” stand apart in the source; their conditions may differ.

Tests used:
[1] = cited from earlier work
choriocapillaris [2] = assay: Photodynamic therapy with liposomal hypocrellin A in rabbit eyes, yellow laser (568 nm), fundus observation and fluorescein angiography; format: in vivo, Rabbits (Dutch belted pigmented); details: for Fluorescein Angiogram 2 hours post PDT / Fluorescein Angiogram 24 hours post PDT: 568 nm, 500 μg/kg i.v. in liposomes
Method: (§1) Rabbits (twenty-five Dutch belted pigmented, 2-3 kg body weight), were administered hypocrellin A (Molecular Probes, Eugene, Oreg.) by systemic injection into the ear vein. Animals were anesthetized by intramuscular injection of ketamine hydrochloride (50 mg/kg) and xylazine hydrochloride (5 mg/kg). Pupils were dilated with 2.5% phenylephrine and 0.5% tropicamide.
Hypocrellin A was incorporated into liposomes composed of phosphatidylcholine (PC), phosphatidylglycerol (PG), cholesterol, or dipalmitoyl phosphatidylcholine (DPPC), dipalmitoyl phosphatidylglycerol (DPPG) (Avanti Polar Lipids, Pelham, Ala.), with or without cholesterol, using methods known to one of skill in this art. In general, large unilamellar vesicles (LUV) were formed using the reverse phase evaporation method of Szoka and Papahadjopoulos (Proc. Natl. Acad. Sci. USA 1978; 75:4194-4198). Lipids (100 mg PC, 25 mg PG, and optionally 15 mg cholesterol) and 1 mg hypocrellin A were dissolved in chloroform. The solution was placed in a round flask under rotary evaporation (Buschi Laboratoriums-teenik AG, Flawil, Schewiz) to make a thin film. The dried material was dissolved in 6 ml chloroform and 12 ml ether.
The aqueous phase consisted of 4 ml HEPES buffered saline ([…] NaCI, 2 mM KCI, 10 mM HEPES buffer, pH 7.4, 300 mOsm). This was added to the chloroform/ether solution, the flask was filled with nitrogen gas and subjected to ultrasound at 40° C. for two minutes to form a homogeneous emulsion, which was transferred to a rotary evaporator. At pressures below about 400 mm Hg, the emulsion began to bubble extensively as the organic phase was drawn off. […] The foaming emulsion was vented whenever it neared the top of the flask. Progressively higher vacuum was used to maintain foaming. As the process continued, the foaming decreased. At a pressure of about 100 mm Hg, foaming ceased and the procedure was completed. The process yielded large, negatively charged, unilamellar liposomes with HEPES buffer encapsulated into the aqueous phase and hypocrellin A incorporated into the bilayers of the liposomes. Before injection, the LUV were filtered through 0.8 μm pores.
The hypocrellin preparation was administered as an intravenous bolus into the marginal ear vein. The dose of hypocrellin administered was 500 μg/kg in a volume of about 2 ml. However, doses in the range of about […] may also be administered. Control animals received vehicle (liposomes without hypocrellin A in a saline solution) only.
(§2) After administration of compound, for example, 10-15 minutes after hypocrellin A administration, PDT was initiated upon application of laser irradiation with a dye laser (Coherent, Palo Alto, Calif.). Prior to light application, a lens with a focal length of 25 cm was placed in front of the laser beam to prevent interference with the slit lamp light path and to enlarge the spot size produced by the 500 μm setting of the laser to 2 mm on the retina. A spot size of 2 mm was used throughout. A plano fundus contact lens was placed on the cornea, with methylcellulose gel as a coupler, to null the refraction of the cornea. Animals were positioned in a stereotactic support attached to the slit lamp to maintain precise alignment.
The wavelengths were tested: yellow (568 nm) and red (647 nm). Laser powers were in the range of about 10 mW to about 60 mW. Duration of irradiation was for a minimum of 10 seconds to a maximum of 60 seconds. The photodynamic effect is not only related to the irradiance, but power and duration as well. Fluence (irradiance) is the product of power and duration divided by the spot size, but with a constant spot size, irradiance is a function of power and duration only. Fluence was in the range of 3.2 to 95.5 J/cm^2. […] In one embodiment, the lowest possible power and duration that induce the minimal fluorescein angiographic response is used.
The irradiations were done in the avascular retina, below the optic disc. […]

choriocapillaris [3] = assay: Photodynamic therapy with hypocrellin A in rabbit eyes, red laser (647 nm), funduscopy and angiography; format: in vivo, Rabbits (Dutch belted pigmented); details: 647 nm (red laser); dose of 500 μg/kg systemically; any of the power levels or durations tested
Method: as §1
The hypocrellin preparation was administered as an intravenous bolus into the marginal ear vein. […] However, doses in the range of about […] may also be administered. Control animals received vehicle (liposomes without hypocrellin A in a saline solution) only.
as §2, with “alignment. […]” for “alignment.”

choriocapillaris [4] = tested on: choriocapillaris
Method: Immediately after the second fluorescein examination, eyes were enucleated and fixed in 2% paraformaldehyde and 3% glutaraldehyde for 24 h. The areas of PDT treatment were surgically excised and specimens were dehydrated in ethanol, embedded in resin, subjected to serial sectioning and staining with 1% toluidine blue for light microscopy.

[5] = power 10 mW, duration 10, 20, 30, 40, 50, 60 sec, irradiance 3.2-19.1 J/cm^2, 2 mm spot
[6] = power 20 mW, duration 10, 20, 30, 40, 50 sec, irradiance 6.4-31.8 J/cm^2
[7] = power 20 mW, duration 60 sec, irradiance 38.2 J/cm^2
[8] = power 30 mW, duration 10, 20, 30 sec, irradiance 9.6-28.6 J/cm^2
[9] = power 30 mW, duration 40, 50, 60 sec, irradiance 38.2-57.3 J/cm^2
[10] = power 40 mW, duration 10 sec, irradiance 12.7 J/cm^2
[11] = power 40 mW, duration 20, 30, 40, 50, 60 sec, irradiance 25.4-76.4 J/cm^2
[12] = power 50 mW, duration 10, 20, 30, 40, 50, 60 sec, irradiance 15.9-95.5 J/cm^2
[13] = power 60 mW, duration 10 sec, irradiance 19.1 J/cm^2
[14] = power 60 mW, duration 20 sec, irradiance 38.2 J/cm^2
[15] = power 60 mW, duration 30 sec, irradiance 57.3 J/cm^2

hypocrellin A
toxicity in the absence of light [1]: non-toxic
retinal changes in the treated area during or immediately after laser irradiation (choriocapillaris [2]; 568 nm (yellow laser), treated rabbits): no retinal changes
Fluorescein Angiogram 2 hours post PDT (choriocapillaris [2]; [5]): no effect; also recorded: No response
Fluorescein Angiogram 24 hours post PDT (choriocapillaris [2]; [5]): no effect; also recorded: No response
Fluorescein Angiogram 2 hours post PDT (choriocapillaris [2]; [6]): no effect; also recorded: No response
Fluorescein Angiogram 24 hours post PDT (choriocapillaris [2]; [6]): no effect; also recorded: No response
Fluorescein Angiogram 2 hours post PDT (choriocapillaris [2]; [7]): No response
Fluorescein Angiogram 24 hours post PDT (choriocapillaris [2]; [7]): minimal response; also recorded: Minimal H
Fluorescein Angiogram 2 hours post PDT (choriocapillaris [2]; [8]): No response
Fluorescein Angiogram 24 hours post PDT (choriocapillaris [2]; [8]): No response
Fluorescein Angiogram 2 hours post PDT (choriocapillaris [2]; [9]): No response
Fluorescein Angiogram 24 hours post PDT (choriocapillaris [2]; [9]): fluorescence effect was seen and H
Fluorescein Angiogram 2 hours post PDT (choriocapillaris [2]; [10]): No response
Fluorescein Angiogram 24 hours post PDT (choriocapillaris [2]; [10]): No response
Fluorescein Angiogram 2 hours post PDT (choriocapillaris [2]; [11]): no effect; also recorded: No response
Fluorescein Angiogram 24 hours post PDT (choriocapillaris [2]; [11]): fluorescence effect and H
Fluorescein Angiogram 2 hours post PDT (choriocapillaris [2]; [12]): No response
Fluorescein Angiogram 24 hours post PDT (choriocapillaris [2]; [12]): fluorescence effect was observed and H
Fluorescein Angiogram 2 hours post PDT (choriocapillaris [2]; [13]): No response
Fluorescein Angiogram 24 hours post PDT (choriocapillaris [2]; [13]): response visible on the angiogram and fluorescence effect and H
Fluorescein Angiogram 2 hours post PDT (choriocapillaris [2]; [14]): fluorescence effect was seen and H
Fluorescein Angiogram 24 hours post PDT (choriocapillaris [2]; [14]): fluorescence effect was seen and H
Fluorescein Angiogram 2 hours post PDT (choriocapillaris [2]; [15]): fluorescence effect was seen and H
Fluorescein Angiogram 24 hours post PDT (choriocapillaris [2]; [15]): fluorescence effect was seen and H
funduscopic or angiographic changes (choriocapillaris [3]): no demonstrable funduscopic or angiographic changes
histologic finding by light microscopy 24 hours after laser irradiation (choriocapillaris [4]; all eyes that developed angiographic changes): occlusion of the choriocapillaris
damage to inner or outer retinal layers (choriocapillaris [4]; light microscopy 24 hours after laser irradiation): No damage to inner or outer retinal layers
